Test system: SARS-CoV-2 (USA-WA1/2020) in Calu-3 cells
Format: cell-based
Details: Calu-3, 48 h; for dsRNA signal, AU High: high dose (10 µM); for dsRNA signal, AU Low: low dose (100 nM)

Row | Compound | dsRNA signal, AU High [AU] | dsRNA signal, AU Low [AU]
1 | CCCCCCCCCCCCCC(=O)O[C@@H]1[C@@H](C)[C@@]2(O)[C@@H](C=C(CO)C[C@]3(O)C(=O)C(C)=C[C@@H]23)[C@@H]2C(C)(C)[C@]12OC(C)=O | 6922.4 | 0.0
2 | 2-D08 | 21678.5 | 7689.9
3 | 6H05 | 9210.5 | 25435.6
4 | 10058-F4 | 21785.0 | 24031.2
5 | O=C(O)C(Cc1ccccc1[N+](=O)[O-])=NNc1nc(-c2ccc(Cl)c(Cl)c2)cs1 (mixture of isomers) [4EGI-1] | 27081.3 | 17726.3
6 | COC(=O)C1=C(C)NC(C)=C(C(=O)O[C@@H]2CCCN(Cc3ccccc3)C2)[C@@H]1c1cccc([N+](=O)[O-])c1.Cl (racemic) [Benidipine HCl] | 130.4 | 31078.1
7 | O=C(COc1ccc(Cl)cc1)NC1CCC(NC(=O)COc2ccc(Cl)cc2)CC1 (single isomer, unassigned) [ISRIB (trans-isomer)] | 6980.3 | 60689.2
8 | CC(=O)c1c(O)c(C)c(O)c2c1OC1=CC(=O)C(C(C)=O)C(=O)C12C (single isomer, unassigned; (+)) [(+)-Usniacin] | 3049.6 | 59009.6
9 | O=C1NC(=O)C(=Cc2ccc(-c3ccc(F)cc3)o2)S1 (stereo in doubt) [CAY10505] | 15375.8 | 16784.8
10 | BrC1C(Br)C(Br)C(Br)C(Br)C1Br (stereo not shown) [1,2,3,4,5,6-Hexabromocyclohexane] | 58.9 | 23091.7
11 | CCCCCCCCCCCC(=O)OC[C@H](CO)OC(=O)CCCCCCCCCCC [1,2-Dilauroyl-sn-glycerol] | 32229.3 | 52450.9
12 | OCC1OC(O)CC(O)C1O [2-Deoxy-D-glucose] | 5572.7 | 62378.7
13 | Cn1cnc(N)c2ncnc1-2 [3-Methyladenine] | 32357.3 | 26977.2
14 | Cc1c[nH]c2ccccc12 [3-Methylindole] | 0.0 | 1602.7
15 | O=C(CCl)c1c[nH]c2ccccc12 [3CAI] | 6736.4 | 43810.0
16 | O=C(O)c1ccc(N2C(=O)/C(=C\c3ccc(-c4ccc([N+](=O)[O-])cc4)o3)C=C2c2ccccc2)cc1 [4E1RCat] | 11534.6 | 17206.1
17 | Nc1ncnc2c1c(I)cn2[C@@H]1O[C@H](CO)[C@@H](O)[C@H]1O [5-Iodotubercidin] | 2639.0 | 20167.4
18 | O=c1cc(-c2ccccc2)oc2c(O)c(O)ccc12 [7,8-Dihydroxyflavone] | 9230.6 | 39399.4
19 | CCCCCCCC/C=C\CCCCCCCCCCCC(=O)O [13(Z)-Docosenoic Acid] | 4336.2 | 49926.0
20 | Cc1[nH]nc2ccc(-c3cncc(OC[C@@H](N)Cc4ccccc4)c3)cc12 [A-674563] | 0.0 | 6156.4

Row | Compound | dsRNA signal, AU High [AU] | dsRNA signal, AU Low [AU]
21 | Cc1c(NC(=O)OC[C@@H]2COCCN2)cn2ncnc(Nc3ccc4c(cnn4Cc4cccc(F)c4)c3)c12 [AC480 (BMS-599626)] | 468.1 | 62401.2
22 | COCc1c(-c2ccc(NC(=O)Nc3cc(C(F)(F)F)ccc3F)c(F)c2)c2c(N)ncnn2c1CN1CCOCC1 [ACTB-1003] | 28009.9 | 9584.0
23 | N#C/C(=C/c1ccc(O)c(O)c1)C(=O)NCc1ccccc1 [AG-490] | 8748.3 | 4415.8
24 | CC(C)(C)c1cc(C=C(C#N)C#N)cc(Br)c1O [AG-1024] | 1211.9 | 44737.5
25 | COc1cc2ncnc(Nc3cccc(Cl)c3)c2cc1OC [AG-1478] | 1676.2 | 67129.9
26 | NC(=O)c1ncn([C@@H]2O[C@H](CO)[C@@H](O)[C@H]2O)c1N [AICAR] | 10649.1 | 34470.9
27 | c1ccc(-c2oc3ncnc(NC[C@@H]4CCCO4)c3c2-c2ccccc2)cc1 [AIM-100] | 17272.0 | 4414.3
28 | O=c1[nH]c2ccccc2n1C1CCN(Cc2ccc(-c3nc4cc5[nH]cnc5cc4nc3-c3ccccc3)cc2)CC1 [AKT inhibitor VIII] | 14379.0 | 47838.1
29 | O=C(Nc1ccccc1C(=O)NC1CCCCNC1=O)c1cc2ccccc2s1 (stereo not shown) [ANA 12] | 5083.5 | 20498.0
30 | c1cc(Nc2cc(C3CC3)[nH]n2)nc(Nc2ccc3nc[nH]c3c2)n1 [APY29] | 1195.6 | 15781.0
31 | COc1ccc(CNC(=O)Nc2ncc([N+](=O)[O-])s2)cc1 [AR-A014418] | 79.4 | 22152.5
32 | N#CC(c1ccnc(NCCc2cccnc2)n1)c1nc2ccccc2s1 (stereo not shown) [AS601245] | 18398.2 | 6237.2
33 | O=C1NC(=O)/C(=C\c2ccc3nccnc3c2)S1 [AS-605240] | 11785.5 | 49405.3
34 | COc1cc(N2CCC(N3CCN(C)CC3)CC2)ccc1Nc1ncnc(Nc2ccccc2S(=O)(=O)C(C)C)n1 [ASP3026] | 11916.3 | 27995.4
35 | CCN1CCN(Cc2ccc(NC(=O)Nc3ccc(Oc4cc(NC)ncn4)cc3)cc2C(F)(F)F)CC1 [AST 487] | 7505.2 | 5709.8
36 | Cl.O=C(NC1CCNCC1)c1[nH]ncc1NC(=O)c1c(Cl)cccc1Cl [AT7519 Hydrochloride] | 0.0 | 18031.2
37 | Clc1ccc(C2(c3ccc(-c4cn[nH]c4)cc3)CCNCC2)cc1 [AT7867] | 150.0 | 6554.9
38 | C=CC(=O)Nc1cccc(Nc2nc(Nc3ccc(OCCOC)cc3)ncc2F)c1 [AVL-292] | 20034.7 | 9433.9
39 | N#Cc1ccc2[nH]c(O)c(-c3ccc(CN4CCOCC4)cn3)c2c1 [AZD1080] | 30210.5 | 12322.5
40 | CC(C)n1c(=O)n(C)c2cnc3cc(F)c(-c4ccc(OCCCN5CCCCC5)nc4)cc3c21 [AZD1390] | 7959.8 | 37767.2

Row | Compound | dsRNA signal, AU High [AU] | dsRNA signal, AU Low [AU]
41 | CNC(=O)c1cccc(-c2ccc3c(N4CCOC[C@@H]4C)nc(N4CCOC[C@@H]4C)nc3n2)c1 [AZD2014] | 4130.5 | 12584.4
42 | CN1CCN(S(=O)(=O)c2ccc(-c3cnc(N)c(C(=O)Nc4cccnc4)n3)cc2)CC1 [AZD2858] | 10014.5 | 6684.6
43 | Cc1noc(C)c1-c1ccc(-c2cc(C(N)=O)c(NC(N)=O)s2)c(O[C@H]2CCNC2)c1 [AZD3264] | 223.2 | 47155.4
44 | Cn1cnc2c(F)c(Nc3ccc(Br)cc3Cl)c(C(=O)NOCCO)cc21 [AZD6244 (Selumetinib)] | 7299.3 | 3732.5
45 | C[C@@H]1COCCN1c1cc(C2([S@](C)(=N)=O)CC2)nc(-c2cc[nH]c3nccc2-3)n1 [AZD6738] | 290.6 | 16844.7
46 | COc1ccc(-c2ccc3c(N4CCOC[C@@H]4C)nc(N4CCOC[C@@H]4C)nc3n2)cc1CO [AZD8055] | 0.0 | 39910.8
47 | C[C@@H](Nc1cc(F)cc(F)c1)c1cc(C(=O)N(C)C)cc2c(=O)cc(N3CCOCC3)oc12 [AZD8186] | 4769.3 | 35908.0
48 | Cc1cc(C(=O)NOCCO)c(Nc2ccc(I)cc2F)n(C)c1=O [AZD8330] | 29149.3 | 63631.5
49 | COc1cc(N2CCC(N)CC2)ccc1Nc1ncc(Cl)c(-c2c[nH]c3ccccc23)n1 [AZD-3463] | 9390.1 | 40804.7
50 | Cc1ncc(-c2ccnc(Nc3ccc(S(C)(=O)=O)cc3)n2)n1C(C)C [AZD-5438] | 10643.7 | 32871.5
51 | CN(C)C/C=C/C(=O)Nc1cc2c(Nc3ccc(F)c(Cl)c3)ncnc2cc1O[C@H]1CCOC1 [Afatinib (BIBW2992)] | 1924.8 | 12314.4
52 | CN(C)C/C=C/C(=O)Nc1cc2c(Nc3ccc(F)c(Cl)c3)ncnc2cc1O[C@H]1CCOC1 [Afatinib dimaleate] | 15371.8 | 40279.2
53 | O=C(Nc1cc(Oc2cc(F)c(NC(=O)C3(C(=O)Nc4ccc(F)cc4)CC3)cc2F)ccn1)C1CC1 [Altiratinib] | 7645.1 | 34585.3
54 | CC(C)c1ccc2oc3nc(N)c(C(=O)O)cc3c(=O)c2c1 [Amlexanox] | 17956.6 | 28672.3
55 | S=C(NCc1ccc2c(c1)OCO2)N1CCN(c2ncnc3c2oc2ccccc23)CC1 [Amuvatinib (MP-470, HPK 56)] | 6649.7 | 32179.3
56 | COc1ccc(C[C@H]2NC[C@H](O)[C@H]2OC(C)=O)cc1 [Anisomycin] | 20082.7 | 2629.3
57 | N#CC1(c2ccc(NC(=O)c3cccnc3NCc3ccncc3)cc2)CCCC1 [Apatinib] | 181.1 | 36614.7
58 | O=c1cc(-c2ccc(O)cc2)oc2cc(O)cc(O)c12 [Apigenin] | 1738.8 | 15810.5
59 | C[C@@H]1CC[C@H]2[C@@H](C)C(=O)O[C@@H]3O[C@@]4(C)CC[C@@H]1[C@]32OO4 [Artemisinine] | 2826.9 | 35035.3
